In patent US4455292A, “Radiological contrast composition and methods” (Board of Regents, the University of Texas System, priority 1982, dated 1984):

How the values were obtained:
Rat Brain Hexokinase = assay: Competitive inhibition of rat brain hexokinase; type: biochemical; conditions: J. Neurochemistry 37: 1000 (1981)
From the text: Rather than relying on indirect manipulative steps to avoid contrast agent diffusion to brain, there is a need for an inexpensive, reliable, direct mechanism to avoid central nervous system complications induced by the iodo-benzamido-glucopyranose x-ray contrast agents. Following intense pharmacological research into the biochemical activity of the contrast agents, typified by metrizamide, Applicant has discovered that such compounds interfere with glycolysis metabolism in the brain. […] This interference with the utilization of glucose, which normally serves as the obligatory energy source in the brain, may explain some of the depressive effects of intrathecally administered metrizamide and related compounds.

patients = conditions: cerebrospinal myelography patients; cited from earlier work
[1] = reconstituted according to certain directions, at body temperature; cited from earlier work
human brain hexokinase [2] = molecular target: T1, human brain hexokinase (Homo sapiens, UniProt P19367); assay: Inhibition constant for human brain hexokinase; type: biochemical; design: from tissue; host or cells: human brain; conditions: with respect to human brain hexokinase; competitive with glucose
T1 sequence (P19367 1-917): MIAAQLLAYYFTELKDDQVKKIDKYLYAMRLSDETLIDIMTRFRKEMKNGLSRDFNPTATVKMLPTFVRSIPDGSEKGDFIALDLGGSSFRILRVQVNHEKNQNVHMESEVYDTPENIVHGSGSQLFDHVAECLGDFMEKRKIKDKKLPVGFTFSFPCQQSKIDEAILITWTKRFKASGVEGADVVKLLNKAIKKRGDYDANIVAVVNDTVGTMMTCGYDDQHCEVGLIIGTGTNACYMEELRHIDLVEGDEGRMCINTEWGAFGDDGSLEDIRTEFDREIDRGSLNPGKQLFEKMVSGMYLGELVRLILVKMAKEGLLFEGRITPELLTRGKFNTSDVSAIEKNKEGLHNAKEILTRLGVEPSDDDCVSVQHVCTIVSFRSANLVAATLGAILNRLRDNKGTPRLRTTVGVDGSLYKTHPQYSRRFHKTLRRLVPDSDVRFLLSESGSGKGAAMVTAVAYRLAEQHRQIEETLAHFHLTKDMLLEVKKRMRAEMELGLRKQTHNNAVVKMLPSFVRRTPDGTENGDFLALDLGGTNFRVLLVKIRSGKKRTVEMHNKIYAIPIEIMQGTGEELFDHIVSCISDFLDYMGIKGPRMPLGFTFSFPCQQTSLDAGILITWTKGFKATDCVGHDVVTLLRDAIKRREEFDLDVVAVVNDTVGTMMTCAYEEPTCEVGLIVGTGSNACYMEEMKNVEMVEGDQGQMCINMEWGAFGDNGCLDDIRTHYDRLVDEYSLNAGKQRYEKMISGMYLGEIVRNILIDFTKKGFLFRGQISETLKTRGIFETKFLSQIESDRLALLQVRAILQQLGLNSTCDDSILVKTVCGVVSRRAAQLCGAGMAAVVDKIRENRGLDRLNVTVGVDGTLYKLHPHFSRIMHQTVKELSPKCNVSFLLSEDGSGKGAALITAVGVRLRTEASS
From the text: (§1) The appropriate amount of glucose to be combined with or to be coadministered with a selected iodo-benzamido-glucopyranose contrast agent can be determined by knowing the hexokinase inhibition constant (Ki) for a selected contrast agent. The ratio of the activity of an enzyme to its maximal activity (Vmax) in the presence of competitive inhibitors is given by the following formula: v/Vmax=[S]/([S]+Km(1+([I]/Ki)), where [S] is glucose concentration, [I] is inhibitor concentration, Km is the Michaelis constant for glucose utilization of hexokinase, and Ki is the inhibition constant for the contrast agent. With no inhibitor present, glucose utilization by human brain hexokinase is represented by a v/Vmax of 0.99 (the Km for glucose utilization by brain hexokinase is 0.05 mM, and typical spinal fluid contains 4 mM glucose).
In a routine myelographic procedure, 780 mM (300 mg I/ml) metrizamide is administered. Substituting this variable into the above Michaelis-Menten equation, one finds a v/Vmax of only 0.25. This value represents a significant reduction in glucose utilization. Even if the concentration of metrizamide were diluted tenfold by the time it reached the cerebral surfaces, a v/Vmax of only 0.77 is predicted. Reductions in glucose utilization ranging from 0.6 to 0.7 have been associated with varieties of stupor and coma in humans.

human brain hexokinase [3] = molecular target: T1, human brain hexokinase; assay: Calculated glucose utilization by brain hexokinase (v/Vmax, Michaelis-Menten equation with competitive inhibitor); design: from tissue; host or cells: human brain
From the text: as §1
In a routine myelographic procedure, 780 mM (300 mg I/ml) metrizamide is administered. Substituting this variable into the above Michaelis-Menten equation, one finds a v/Vmax of only 0.25. […]
However because metrizamide is a relatively weak competitive inhibitor of glucose, a small increase in glucose concentration can restore hexokinase-glucose utilization to an effective level. […] By solving for [S] it is calculated that an initial concentration of about 100 mM glucose is needed to counteract the effects of an intrathecal injection of 780 mM metrizamide. […]

human brain hexokinase [4] = molecular target: T1, human brain hexokinase; conditions: read-out: Km for glucose utilization by brain hexokinase, Michaelis constant; cited from earlier work

Compound | mode of hexokinase inhibition (Rat Brain Hexokinase) | fraction of patients treated with temporary confusional state and EEG deterioration (patients) | specific gravity [1] | Ki (human brain hexokinase [2]) | v/Vmax (glucose utilization) (human brain hexokinase [3]; 780 mM (300 mg I/ml) metrizamide, routine myelographic procedure, typical spinal fluid 4 mM glucose) | v/Vmax (glucose utilization) (human brain hexokinase [3]; metrizamide concentration diluted tenfold by the time it reaches the cerebral surfaces) | Km (human brain hexokinase [4])
CC(=O)Nc1c(I)c(C(=O)N[C@H]2C(O)O[C@H](CO)[C@@H](O)[C@@H]2O)c(I)c(N(C)C(C)=O)c1I (stereo partly drawn) [metrizamide, 2-[3-Acetamido-2,4,6-triiodo-5-(N-methylacetamido)benzamido]-2-deoxy-D-glucopyranose] | competes with glucose to inhibit hexokinase activity | about one-third | 1.184 | 2500 µM | 0.25 | 0.77 | –
OC[C@H]1OC(O)[C@H](O)[C@@H](O)[C@@H]1O (stereo partly shown) [glucose] | – | – | – | – | – | – | 50 µM
